For 37 molecules, class results are on record in patent US20050197350A1, “Novel quinoline, tetrahydroquinazoline, and pyrimidine derivatives and methods of treatment related to the use thereof” (TAISHO PHARMACEUTICAL CO., LTD., priority 2003, published 2005).

Each structure is given as a SMILES string.

The first assay has as its system MCH receptors. In words: MCH receptor activity class (method not given). Particulars: MCH receptor activity class 1-3 (percent of control at 10^-7 M or IC50).
With `CN(C)c1ccnc(N[C@H]2CC[C@@H](CNC(=O)Nc3cccc(Cl)c3Cl)CC2)n1` [compound 2440], the class is on record as 1 (Class 1: The value of percent of control at 10^−7 M was less than 40% or the value of IC50 was less than 50 nM.).

The same assay, now with this note: MCH receptor; class by percent of control at 10^-7 M or IC50.
On to `CN(C)c1nc(N[C@H]2CC[C@@H](NC(=S)Nc3cc(Br)ccc3Br)CC2)nc2c1CCCC2` [compound 2033], for which the class is listed as 3 (Class 3 The value of percent of control at 10^−7 M was more than 60% or the value of IC50 was more than 200 nM.).
The same measure, in the same setting: then `CN(C)c1cc(N[C@H]2CC[C@@H](CNC(=O)C3C[C@H]3c3ccccc3)CC2)nc2ccccc12` (stereo partly shown) [compound 173], with 3 (Class 3 The value of percent of control at 10^−7 M was more than 60% or the value of IC50 was more than 200 nM.); and `CSc1ccccc1NC(=S)N[C@H]1CC[C@@H](Nc2nc3c(c(N(C)C)n2)CCCC3)CC1` [compound 1967], with 3 (Class 3 The value of percent of control at 10^−7 M was more than 60% or the value of IC50 was more than 200 nM.); and `CN(C)c1nc(N[C@H]2CC[C@@H](NC(=S)Nc3cc(C(F)(F)F)ccc3Cl)CC2)nc2c1CCCC2` [compound 2003], with 3 (Class 3 The value of percent of control at 10^−7 M was more than 60% or the value of IC50 was more than 200 nM.).
The same measure, in the same setting: then `CN(C)c1cc(N[C@H]2CC[C@@H](CNC(=O)c3ccc(F)cc3Cl)CC2)nc2ccccc12` [compound 188], with 3 (Class 3 The value of percent of control at 10^−7 M was more than 60% or the value of IC50 was more than 200 nM.).

Staying with this assay, now noted: activity class 1-3: percent of control at 10^-7 M or IC50.
Take `CN(C)c1ccnc(N[C@H]2CC[C@@H](NC(=O)OCc3ccccc3Cl)CC2)n1` [compound 1636]: the class is 3 (Class 3 The value of percent of control at 10^−7 M was more than 60% or the value of IC50 was more than 200 nM.).
Still for that read-out and setting: then `CSc1ccc(NC(=O)N[C@H]2CC[C@@H](Nc3nc4c(c(N(C)C)n3)CCCC4)CC2)cc1` [compound 1665], with 3 (Class 3 The value of percent of control at 10^−7 M was more than 60% or the value of IC50 was more than 200 nM.); and `COc1ccccc1OC(=O)N[C@H]1CC[C@@H](Nc2cc(N(C)C)c3ccccc3n2)CC1` [compound 1544], with 3 (Class 3 The value of percent of control at 10^−7 M was more than 60% or the value of IC50 was more than 200 nM.).

The same assay, now with this note: activity class per percent of control at 10^-7 M or IC50.
As for `CN(C)c1nc(N[C@H]2CC[C@@H](NC(=O)c3c4ccccc4cc4ccccc34)CC2)nc2c1CCCC2` [compound 1029], the class is 3 (Class 3 The value of percent of control at 10^−7 M was more than 60% or the value of IC50 was more than 200 nM.).
Still for that read-out and setting: then `CN(C)c1nc(N[C@H]2CC[C@@H](NC(=O)Cc3sc(-c4ccccc4)nc3-c3ccc(Cl)cc3)CC2)nc2c1CCCC2` [compound 1037], with 3 (Class 3 The value of percent of control at 10^−7 M was more than 60% or the value of IC50 was more than 200 nM.).

Still in this assay, the particulars now being: class 1-3 by percent of control at 10^-7 M or IC50.
As for `CN(C)c1nc(N[C@H]2CC[C@@H](NC(=O)c3ccc4nonc4c3)CC2)nc2c1CCCC2` [compound 459], the class is 1 (Class 1: The value of percent of control at 10^−7 M was less than 40% or the value of IC50 was less than 50 nM.).
The same measure, in the same setting: the value for `Cc1ccc(Oc2ncccc2C(=O)N[C@H]2CC[C@@H](Nc3nc4c(c(N(C)C)n3)CCCC4)CC2)cc1` [compound 573] was 1 (Class 1: The value of percent of control at 10^−7 M was less than 40% or the value of IC50 was less than 50 nM.); that for `CN(C)c1nc(N[C@H]2CC[C@@H](NC(=O)c3cccc(C(F)(F)F)c3F)CC2)nc2c1CCCC2` [compound 500] was 3 (Class 3 The value of percent of control at 10^−7 M was more than 60% or the value of IC50 was more than 200 nM.).
The same measure, in the same setting: then `CN(C)c1nc(N[C@H]2CC[C@@H](NC(=O)COc3c(F)c(F)c(F)c(F)c3F)CC2)nc2c1CCCC2` [compound 558], with 3 (Class 3 The value of percent of control at 10^−7 M was more than 60% or the value of IC50 was more than 200 nM.).

Still in this assay, the particulars now being: class by percent of control at 10^-7 M or IC50.
Regarding `Cc1c(C(=O)N[C@H]2CC[C@@H](Nc3nccc(N(C)C)n3)CC2)cc(-c2ccccc2)n1CCSCc1c(F)cccc1Cl` [compound 891], the class was 1 (Class 1: The value of percent of control at 10^−7 M was less than 40% or the value of IC50 was less than 50 nM.).
As for `CC(=O)c1cccc(C(=O)N[C@H]2CC[C@@H](Nc3nc4c(c(N(C)C)n3)CCCC4)CC2)c1` [compound 968], the class is reported as 1 (Class 1: The value of percent of control at 10^−7 M was less than 40% or the value of IC50 was less than 50 nM.).
Still for that read-out and setting: the value for `CN(C)c1cc(N[C@H]2CC[C@@H](NC(=O)/C=C/c3cccc([N+](=O)[O-])c3)CC2)nc2ccccc12` [compound 683] was 2 (Class 2: The value of percent of control at 10^−7 M was from 40% to 60% or the value of IC′50 was from 50 nM to 200 nM.); that for `CN(C)c1nc(N[C@H]2CC[C@@H](NC(=O)Nc3cccc(C#N)c3)CC2)nc2c1CCCC2` [compound 1817] was 3 (Class 3 The value of percent of control at 10^−7 M was more than 60% or the value of IC50 was more than 200 nM.).
On the same count and under the same terms, then `COc1ccc(CCCCNC[C@H]2CC[C@@H](Nc3nc4c(c(N(C)C)n3)CCCC4)CC2)cc1` [compound 1499], with 3 (Class 3 The value of percent of control at 10^−7 M was more than 60% or the value of IC50 was more than 200 nM.).
Regarding `CN(C)c1cc(N[C@H]2CC[C@@H](NC(=O)C3CC(=O)c4ccccc43)CC2)nc2ccccc12` (relative stereo) [compound 684], the class is 3 (Class 3 The value of percent of control at 10^−7 M was more than 60% or the value of IC50 was more than 200 nM.).
Still for that read-out and setting: the value for `CN(C)c1nc(N[C@H]2CC[C@@H](NC(=O)c3ccc([N+](=O)[O-])s3)CC2)nc2c1CCCC2` [compound 964] was 1 (Class 1: The value of percent of control at 10^−7 M was less than 40% or the value of IC50 was less than 50 nM.); that for `COc1cc(CN[C@H]2CC[C@@H](Nc3nc4c(c(N(C)C)n3)CCCC4)CC2)cc(OC)c1OC` [compound 1340] was 3 (Class 3 The value of percent of control at 10^−7 M was more than 60% or the value of IC50 was more than 200 nM.).
Same read-out and setting: then `CCc1cccc(C(C)C)c1NC(=O)N[C@H]1CC[C@@H](Nc2nccc(N(C)C)n2)CC1` [compound 2196], with 3 (Class 3 The value of percent of control at 10^−7 M was more than 60% or the value of IC50 was more than 200 nM.); and `Cc1cccc(C(C)C)c1NC(=O)N[C@H]1CC[C@@H](Nc2nccc(N(C)C)n2)CC1` [compound 2199], with 3 (Class 3 The value of percent of control at 10^−7 M was more than 60% or the value of IC50 was more than 200 nM.).
Same read-out and setting: the value for `CN(C)c1ccnc(N[C@H]2CC[C@@H](NC(=O)Nc3c(F)cc(Br)cc3Br)CC2)n1` [compound 2191, N-(2,4-dibromo-6-fluorophenyl)-N′-(cis-4-{[4-(dimethylamino)pyrimidin-2-yl]amino}cyclohexyl)urea] was 1 (Class 1: The value of percent of control at 10^−7 M was less than 40% or the value of IC50 was less than 50 nM.); that for `CC(NC(=O)N[C@H]1CC[C@@H](Nc2nc3c(c(N(C)C)n2)CCCC3)CC1)c1ccc(Br)cc1` (relative stereo) [compound 1728, N-[1-(4-bromophenyl)ethyl]-N′-(cis-4-{[4-(dimethylamino)-5,6,7,8-tetrahydroquinazolin-2-yl]amino}cyclohexyl)urea] was 2 (Class 2: The value of percent of control at 10^−7 M was from 40% to 60% or the value of IC′50 was from 50 nM to 200 nM.); that for `CN(C)c1cccc(C(=O)N[C@H]2CC[C@@H](Nc3nccc(N(C)C)n3)CC2)c1` [compound 844] was 2 (Class 2: The value of percent of control at 10^−7 M was from 40% to 60% or the value of IC′50 was from 50 nM to 200 nM.).
Turning to `CN(C)c1ccnc(N[C@H]2CC[C@@H](NC(=O)c3cccc([N+](=O)[O-])c3)CC2)n1` [compound 262, N-(cis-4-{[4-(dimethylamino)pyrimidin-2-yl]amino}cyclohexyl)-3-nitrobenzamide], the class is 1 (Class 1: The value of percent of control at 10^−7 M was less than 40% or the value of IC50 was less than 50 nM.).
Same read-out and setting: then `CN(C)c1cc(N[C@H]2CC[C@@H](NC(=O)NC3C[C@H]3c3ccccc3)CC2)nc2ccccc12` (stereo partly shown) [compound 2131], with 3 (Class 3 The value of percent of control at 10^−7 M was more than 60% or the value of IC50 was more than 200 nM.); and `CN(C)c1cc(N[C@H]2CC[C@@H](NC(=O)c3cccc(Oc4ccccc4)c3)CC2)nc2ccccc12` [compound 731], with 3 (Class 3 The value of percent of control at 10^−7 M was more than 60% or the value of IC50 was more than 200 nM.); and `COc1ccc(F)c(CNC[C@H]2CC[C@@H](Nc3nc4c(c(N(C)C)n3)CCCC4)CC2)c1` [compound 1406], with 3 (Class 3 The value of percent of control at 10^−7 M was more than 60% or the value of IC50 was more than 200 nM.).
The same measure, in the same setting: then `COc1ccc2ccccc2c1CNC[C@H]1CC[C@@H](Nc2nccc(N(C)C)n2)CC1` [compound 1249], with 1 (Class 1: The value of percent of control at 10^−7 M was less than 40% or the value of IC50 was less than 50 nM.).

Still in this assay, the particulars now being: class by percent of control at 10^−7 M or IC50.
In the case of `Cc1cc(N(C)C)nc(NC[C@H]2CC[C@@H](NC(=O)c3ccc(F)c(Cl)c3)CC2)n1` [compound 2746], the class was 3 (Class 3 The value of percent of control at 10^−7 M was more than 60% or the value of IC50 was more than 200 nM.).
With `Cc1cc(N(C)C)nc(N[C@H]2CC[C@@H](CNC(=O)c3cc(Cl)cc(Cl)c3)CC2)n1` [compound 2766, 3,5-dichloro-N-[(cis-4-{[4-(dimethylamino)-6-methylpyrimidin-2-yl]amino}cyclohexyl)methyl]benzamide], the class is 2 (Class 2: The value of percent of control at 10^−7 M was from 40% to 60% or the value of IC′50 was from 50 nM to 200 nM.).
The same measure, in the same setting: the value for `Cc1ccc([C@H](C)NC(=O)[C@H]2CC[C@@H](Nc3nc(C)cc(N(C)C)n3)CC2)cc1` [compound 2795] was 1 (Class 1: The value of percent of control at 10^−7 M was less than 40% or the value of IC50 was less than 50 nM.); that for `Cc1ccc(C(=O)NC[C@H]2CC[C@@H](Nc3nc(C)cc(N(C)C)n3)CC2)cc1` [compound 2752] was 3 (Class 3 The value of percent of control at 10^−7 M was more than 60% or the value of IC50 was more than 200 nM.).
